In patent US11666559B2, “Spiro-lactam compounds, process and uses thereof” (UNIVERSIDADE DE COIMBRA, priority 2017, dated 2023):

Legend:
HIV = assay: Anti-HIV activity evaluation (HIV type not specified); format: cell-based
Experimental: In an embodiment, TZM-bl cells (AIDS Research and Reference Reagent Program, National Institutes of Health, USA) were cultured in complete growth medium that consists of Dulbecco's minimal essential medium (DMEM) supplemented with 10% fetal bovine serum (FBS), 100 U/ml of penicillin-streptomycin (Gibco/Invitrogen, USA), 1 mM of sodium pyruvate (Gibco/Invitrogen, USA), 2 mM of L-glutamine (Gibco/Invitrogen, USA) and 1 mM of non-essential amino acids (Gibco/Invitrogen, USA).
In an embodiment, the primary isolates 93AOHDC249, 93AOHDC250, 01PTHDECJN and 03PTHCC9, used in this study were previously isolated, titrated and characterized for co-receptor usage. HIV reference strain SG3.1 was obtained by transfection of HEK293T cells with pSG3.1 (HIV-1) plasmid using Fugene 6 reagent (Roche, Switzerland) according to manufacturer's instructions.
In an embodiment, the 50% tissue culture infectious dose (TCID50) of the virus was determined in a single-round viral infectivity assay using a luciferase reporter gene assay in TZM-bl cells and calculated using the statistical method of Reed and Muench^27.
In an embodiment, the antiviral activity of the compounds was determined in a single-round assay with TZM-bl cells as previously described ^26. […] After 48 h of infection, luciferase expression was quantified with the One-Glow luciferase assay substrate reagent (Promega, USA) according to manufacturer's instructions. […] After an incubation of 3 minutes at room temperature to allow complete cell lysis luminescence was measured in Tecan Infinite M200. Background luminescence was measured by using control wells that contained only target cells and GM. […]
In an embodiment, dose-response curves were estimated from the percentage of inhibition of infection (y-axis) against logo of concentration of each compound (x-axis) using the sigmoidal dose-response equation (variable slope) in GraphPad Prism version 5.00 for Windows (GraphPad Software, San Diego Calif. USA, www.graphpad.com). IC50 and IC90 values were determined from this curve. […]

TZM-bl cells = assay: Cellular viability assay (alamarBlue) in TZM-bl cells
Excerpt: In an embodiment, the cellular cytotoxicity of 17 spiro-β-lactams was investigated in TZM-bl cells using the AlamarBlue assay as recommended by the manufacturer (Invitrogen, USA). TZM-bl, previously designated JC53-bl (clone 13) is a HeLa cell line. The parental cell line (JC.53) stably expresses large amounts of CD4, CCR5 and CXCR4. The TZM-bl cell line was generated from JC.53 cells by introducing separate integrated copies of the luciferase and […] genes under control of the HIV-1 promoter. The TZM-bl cell line is highly sensitive to infection with diverse isolates of HIV.
In an embodiment, the cellular viability assay was carried out as follows: the potential in vitro cytotoxicity of all BSS compounds was evaluated in TZM-bl cells. TZM-bl cells (10000 cells/well in 96-well plates) were incubated in absence or presence of serial-two-fold dilutions of the compounds in growth medium (GM), with starting concentration of 100 μg/ml and a final concentration of 0.781 μg/ml. After 48 hours, cell viability was examined with alamarBlue reagent (Invitrogen, USA) according to manufacturer's instructions. Briefly, 10 μl of alamarBlue reagent was added to each well. After 4 hours at 37° C., the fluorescence was measured in Tecan Infinite M200 (excitation wavelength 550 nm and emission wavelength 600 nm).
In an embodiment, at least two independent experiments have been performed for each cytotoxicity analysis.
In an embodiment, for each assay there were medium controls (only growth medium), cell controls (cells without test compound) and cytotoxicity controls (a compound that kill cells—SDS).

P. berghei liver stages = assay: In vitro activity against the liver stage of Plasmodium infection (luciferase assay in Huh7 cells); format: cell-based, Plasmodium berghei; details: P. berghei liver stages in Huh7 cells
Experimental: FIG. 6: Compound activity against P. berghei liver stages. Anti-Plasmodial activity (infection axis, bars) and toxicity to hepatoma cells (cell confluency axis, circles) are shown. Infection loads of Huh7 cells, a human hepatoma cell line, were determined by bioluminescence measurements of cell lysates 48 h after infection with luciferase-expressing P. berghei parasites. Luciferase assay in 96 well-plate; 10 000 Huh7 cells/well+10 000 PbA-LuciGFPcon spz/well.
In an embodiment, the in vitro activity against the liver stage of Plasmodium infection was also carried out: inhibition of liver stage Plasmodium infection by test compounds was determined by measuring the luminescence intensity in Huh-7 cells infected with a firefly luciferase-expressing P. berghei line, as previously described. Briefly, Huh-7 cells, a human hepatoma cell line, were cultured in 1640 RPMI medium supplemented with 10% v/v fetal bovine serum, 1% v/v nonessential amino acids, 1% v/v penicillin/streptomycin, 1% v/v glutamine, and 10 mM 4-(2-hydroxyethyl)-1-piperazineethanesulfonic acid (HEPES), pH 7, and maintained at 37° C. with 5% CO2. For infection assays, Huh-7 cells (1.0×10^4 per well) were seeded in 96-well plates the day before drug treatment and infection. The medium was replaced by medium containing the appropriate concentration of each compound approximately 1 h prior to infection with sporozoites freshly obtained through disruption of salivary glands of infected female Anopheles stephensi mosquitoes. Sporozoite addition was followed by centrifugation at 1700×g for 5 min. Parasite infection load was measured 48 h after infection by a bioluminescence assay (Biotium). The effect of the compounds on the viability of Huh-7 cells was assessed by the AlamarBlue assay (Invitrogen, U.K.) using the manufacturer's protocol.

| SMILES | anti-HIV activity (in words) (HIV) | CC50 (TZM-bl cells) [µM] | anti-Plasmodium activity (in words) (P. berghei liver stages) |
| --- | --- | --- | --- |
| COC(=O)C1=C[C@@]2(N=N1)C(=O)N1[C@@H](C(=O)OC(c3ccccc3)c3ccccc3)C(C)(C)S[C@@H]12 [BSS-452] | non-active | 105 | did not display anti-Plasmodium activity |
| COC(=O)C1=C(C(=O)OC)[C@@]2(N=N1)C(=O)N1[C@@H](C(=O)OC(c3ccccc3)c3ccccc3)C(C)(C)S[C@@H]12 [BSS-1026] | non-active | 82 | did not display anti-Plasmodium activity |
